In the supplement of paper PMC12350171:

Columns and labels:
[1] = system: Fusobacterium nucleatum subsp. Nucleatum; assay: IC25 growth inhibition; higher = less potent
Method in brief: (§1)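 Monocultures grown overnight in mGAM were added to pre-reduced plates holding twofold drug dilutions, giving a starting OD578 of 0.01 and 1% DMSO (or water). Growth was followed anaerobically by hourly OD578 readings in a plate reader, with at least three biological replicates. The median growth-curve AUC per concentration was forced to be monotonic. IC25 was the lowest concentration with median AUC below 0.75, reported as a tested interval.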

[2] = system: Escherichia coli ED1a; assay: IC25 growth inhibition; higher = less potent
Method in brief: as §1

[3] = system: Clostridium perfringens; assay: IC25 growth inhibition; higher = less potent
Method in brief: as §1

[4] = system: Vibrio cholerae; assay: IC25 growth inhibition; higher = less potent
Method in brief: as §1

[5] = system: Ruminococcus gnavus; assay: IC25 growth inhibition; higher = less potent
Method in brief: as §1

[6] = system: Bacteroides thetaiotaomicron; assay: IC25 growth inhibition; higher = less potent
Method in brief: as §1

[7] = system: Clostridium ramosum; assay: IC25 growth inhibition; higher = less potent
Method in brief: as §1

[8] = system: Shigella flexneri; assay: IC25 growth inhibition; higher = less potent
Method in brief: as §1

[9] = system: Eubacterium rectale; assay: IC25 growth inhibition; higher = less potent
Method in brief: as §1

[10] = system: Parabacteroides merdae; assay: IC25 growth inhibition; higher = less potent
Method in brief: as §1

[11] = system: Streptococcus parasanguinis; assay: IC25 growth inhibition; higher = less potent
Method in brief: as §1

[12] = system: Coprococcus comes; assay: IC25 growth inhibition; higher = less potent
Method in brief: as §1

[13] = system: Bacteroides fragilis NT; assay: IC25 growth inhibition; higher = less potent
Method in brief: as §1

[14] = system: Collinsella aerofaciens; assay: IC25 growth inhibition; higher = less potent
Method in brief: as §1

[15] = system: Bacteroides uniformis; assay: IC25 growth inhibition; higher = less potent
Method in brief: as §1

[16] = system: Salmonella enterica typhimurium; assay: IC25 growth inhibition; higher = less potent
Method in brief: as §1

[17] = system: Yersinia pseudotuberculosis; assay: IC25 growth inhibition; higher = less potent
Method in brief: as §1

[18] = system: Bacteroides vulgatus; assay: IC25 growth inhibition; higher = less potent
Method in brief: as §1

[19] = system: Streptococcus salivarius; assay: IC25 growth inhibition; higher = less potent
Method in brief: as §1

[20] = system: Clostridium bolteae; assay: IC25 growth inhibition; higher = less potent
Method in brief: as §1

[21] = system: Dorea formicigenerans; assay: IC25 growth inhibition; higher = less potent
Method in brief: as §1

[22] = system: Clostridium saccharolyticum; assay: IC25 growth inhibition; higher = less potent
Method in brief: as §1

[23] = system: Roseburia intestinalis; assay: IC25 growth inhibition; higher = less potent
Method in brief: as §1

[24] = system: Yersinia enterocolitica WA-314; assay: IC25 growth inhibition; higher = less potent
Method in brief: as §1

[25] = system: Com21 synthetic gut community; assay: community biomass OD578 after 24 h drug treatment relative to untreated (fraction of untreated control); higher = more community growth; settings: community: Com21 (Com20 + E. coli ED1a)
Method: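 Com21 (Com20 plus E. coli ED1a) was treated with drug for 24 h under anaerobic conditions in mGAM. Community OD578 was then measured and normalised to untreated Com21; mean of 3 biological replicates.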

[26] = drug pretreatment concentration 2.5 µM
[27] = drug pretreatment concentration 5 µM
[28] = drug pretreatment concentration 10 µM
[29] = drug pretreatment concentration 20 µM
[30] = drug pretreatment concentration 40 µM
[31] = drug pretreatment concentration 80 µM
[32] = drug pretreatment concentration 160 µM
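Wherever IC25 growth inhibition is given: lowest concentration where monotonic median growth AUC falls below 0.75 of drug-free control.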

Structure (SMILES) | IC25 growth inhibition [1] | IC25 growth inhibition [2] | IC25 growth inhibition [3] | IC25 growth inhibition [4] | IC25 growth inhibition [5] | IC25 growth inhibition [6] | IC25 growth inhibition [7] | IC25 growth inhibition [8] | IC25 growth inhibition [9] | IC25 growth inhibition [10] | IC25 growth inhibition [11] | IC25 growth inhibition [12] | IC25 growth inhibition [13] | IC25 growth inhibition [14] | IC25 growth inhibition [15] | IC25 growth inhibition [16] | IC25 growth inhibition [17] | IC25 growth inhibition [18] | IC25 growth inhibition [19] | IC25 growth inhibition [20] | IC25 growth inhibition [21] | IC25 growth inhibition [22] | IC25 growth inhibition [23] | IC25 growth inhibition [24] | community biomass OD578 [25, 26] | community biomass OD578 [25, 27] | community biomass OD578 [25, 28] | community biomass OD578 [25, 29] | community biomass OD578 [25, 30] | community biomass OD578 [25, 31] | community biomass OD578 [25, 32]
CCOC(=O)C1=C(C)NC(C)=C(C(=O)OCC)C1c1ccccc1/C=C/C(=O)OC(C)(C)C [Lacidipine] | > 40 µM | > 40 µM | ≤ 40 µM | > 40 µM | > 40 µM | > 20 µM | > 40 µM | > 40 µM | > 40 µM | > 40 µM | > 20 µM | > 20 µM | > 40 µM | > 20 µM | > 40 µM | > 20 µM | > 20 µM | > 40 µM | > 40 µM | > 20 µM | > 40 µM | > 20 µM | ≤ 20 µM | > 20 µM | 1.01 | 1.01 | 1.04 | 1 | 0.963 | – | –
Cc1c(OCC(F)(F)F)ccnc1C[S+]([O-])c1nc2ccccc2[nH]1 (configuration not stated) [Lansoprazole] | > 160 µM | > 160 µM | > 160 µM | > 160 µM | > 160 µM | > 160 µM | > 160 µM | > 160 µM | > 80 µM | > 160 µM | > 160 µM | > 160 µM | > 160 µM | ≤ 160 µM | ≤ 160 µM | > 160 µM | > 160 µM | > 160 µM | > 160 µM | > 160 µM | ≤ 160 µM | > 160 µM | > 160 µM | > 160 µM | – | – | 0.935 | 0.962 | 0.952 | 0.945 | 0.926
CCOC(=O)N1CCC(=C2c3ccc(Cl)cc3CCc3cccnc32)CC1 [Loratadine] | > 160 µM | > 40 µM | > 160 µM | > 160 µM | > 80 µM | > 160 µM | ≤ 80 µM | > 160 µM | > 160 µM | ≤ 40 µM | > 160 µM | > 40 µM | > 160 µM | > 160 µM | > 160 µM | > 40 µM | > 40 µM | > 160 µM | > 160 µM | > 160 µM | > 160 µM | > 160 µM | > 160 µM | > 80 µM | 1 | 1.01 | 1.02 | 1.01 | 0.941 | – | –
CN1CCN(C2=Nc3ccccc3Oc3ccc(Cl)cc32)CC1 [Loxapine] | ≤ 160 µM | > 160 µM | ≤ 160 µM | ≤ 80 µM | ≤ 160 µM | ≤ 40 µM | > 160 µM | > 160 µM | ≤ 40 µM | ≤ 10 µM | > 160 µM | > 40 µM | ≤ 80 µM | > 160 µM | ≤ 160 µM | > 160 µM | > 160 µM | ≤ 10 µM | ≤ 160 µM | > 160 µM | ≤ 160 µM | > 160 µM | ≤ 160 µM | > 160 µM | – | – | 0.993 | 0.996 | 0.991 | 0.987 | 0.951
CN(C)C(=N)NC(=N)N [Metformin] | > 160 µM | > 160 µM | > 160 µM | > 160 µM | > 160 µM | > 160 µM | > 160 µM | > 160 µM | > 160 µM | > 160 µM | > 160 µM | > 160 µM | > 160 µM | > 160 µM | > 160 µM | > 160 µM | > 160 µM | > 160 µM | > 160 µM | > 160 µM | > 160 µM | > 160 µM | > 160 µM | > 160 µM | – | – | 1.02 | 1.01 | 1.01 | 1.02 | 1.03
CN(Cc1cnc2nc(N)nc(N)c2n1)c1ccc(C(=O)N[C@@H](CCC(=O)O)C(=O)O)cc1 [Methotrexate] | ≤ 20 µM | > 40 µM | ≤ 20 µM | ≤ 40 µM | ≤ 10 µM | > 80 µM | < 1.25 µM | > 80 µM | ≤ 80 µM | > 80 µM | < 1.25 µM | ≤ 80 µM | ≤ 40 µM | ≤ 80 µM | ≤ 10 µM | > 80 µM | > 80 µM | ≤ 20 µM | ≤ 5 µM | ≤ 10 µM | ≤ 40 µM | > 80 µM | > 80 µM | > 80 µM | 0.93 | 0.91 | 0.934 | 0.95 | 0.802 | – | –
Clc1ccc(COC(Cn2ccnc2)c2ccc(Cl)cc2Cl)c(Cl)c1 (configuration not stated) [Miconazole] | > 40 µM | > 80 µM | ≤ 40 µM | > 40 µM | ≤ 10 µM | > 160 µM | ≤ 10 µM | > 40 µM | ≤ 2.5 µM | ≤ 80 µM | > 160 µM | ≤ 5 µM | > 160 µM | ≤ 10 µM | > 160 µM | > 160 µM | > 40 µM | ≤ 160 µM | > 80 µM | ≤ 80 µM | ≤ 5 µM | ≤ 40 µM | ≤ 5 µM | ≤ 160 µM | – | – | 1.02 | 0.969 | 0.893 | 0.702 | 0.547
O=C(Nc1ccc([N+](=O)[O-])cc1Cl)c1cc(Cl)ccc1O [Niclosamide] | ≤ 80 µM | > 80 µM | ≤ 2.5 µM | < 1.25 µM | ≤ 10 µM | < 1.25 µM | ≤ 2.5 µM | > 40 µM | ≤ 5 µM | < 1.25 µM | < 1.25 µM | ≤ 20 µM | < 1.25 µM | ≤ 5 µM | < 1.25 µM | > 160 µM | > 20 µM | < 1.25 µM | < 1.25 µM | > 80 µM | ≤ 20 µM | ≤ 20 µM | ≤ 20 µM | > 160 µM | – | – | 0.912 | 0.901 | 0.897 | 0.823 | 0.811
